Among the data in US20250066341A1 (CHIESI FARMACEUTICI S.P.A., priority 2021, published 2025) are IC50 values, retold here.

Broadly, the IC50 is the midpoint of a concentration-inhibition curve.

For the assay, the target named is T1, human recombinant LPA1 expressed in CHO cells (Homo sapiens, UniProt Q92633).
T1 construct: expressed in transfected cells; host or cells: CHO cells (CHO-hLPA1 cell line)
T1 sequence (Q92633 whole entry): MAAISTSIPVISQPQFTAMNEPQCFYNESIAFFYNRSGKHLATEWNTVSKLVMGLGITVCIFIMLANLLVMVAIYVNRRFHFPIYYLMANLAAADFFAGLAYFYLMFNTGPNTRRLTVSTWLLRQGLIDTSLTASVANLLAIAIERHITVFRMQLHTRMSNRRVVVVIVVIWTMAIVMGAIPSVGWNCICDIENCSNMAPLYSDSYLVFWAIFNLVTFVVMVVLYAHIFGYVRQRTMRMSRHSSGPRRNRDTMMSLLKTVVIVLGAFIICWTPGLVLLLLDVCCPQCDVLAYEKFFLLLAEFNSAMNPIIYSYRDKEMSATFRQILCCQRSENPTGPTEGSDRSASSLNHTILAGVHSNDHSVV
Kind of assay: FLIPR calcium mobilization assay, LPA1 antagonism in CHO-hLPA1 cells. In kind it is cell-based. Conditions: inhibition of LPA EC80 Ca2+ response, 30 min pre-incubation, expressed as range of activity. In short, it runs like this: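 CHO-hLPA1 cells loaded with 5 μM Cal-520 AM plus 2.5 mM probenecid, 30 min at 37 °C, then pre-incubated 30 min at 37 °C with antagonist (11-point CRC, 0.5% DMSO final) before LPA at EC80. Baseline-subtracted peak fluorescence normalised to % inhibition; pIC50 from four-parameter logistic fit.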
(In general: Calcium assays in cells follow changes in intracellular calcium, usually with a dye or a luminescent sensor.)
Take `Cc1nc(-c2nnn(C)c2CNc2nccc(OC(C)C)n2)ccc1OC[C@H]1CCCC[C@@H]1C(=O)O` [Compound 66, (1S,2S)-2-(((6-(5-(((4-isopropoxypyrimidin-2-yl)amino)methyl)-1-methyl-1H-1,2,3-triazol-4-yl)-2-methylpyridin-3-yl)oxy)methyl)cyclohexane-1-carboxylic acid]: the 50% inhibitory concentration (IC50) was less than 50 nM.
As for `CCC[C@@H](C)OC(=O)Nc1c(-c2ccc(OC[C@H]3CCCC[C@@H]3C(=O)O)c(C)n2)nnn1C` [Compound 68, (1S,2S)-2-(((2-methyl-6-(1-methyl-5-(((((R)-pentan-2-yl)oxy)carbonyl)amino)-1H-1,2,3-triazol-4-yl)pyridin-3-yl)oxy)methyl)cyclohexane-1-carboxylic acid], the figure is less than 50 nM.
As for `Cc1nc(-c2nnn(C)c2NC(=O)O[C@H](C)c2ccccc2Cl)ccc1OC[C@H]1CCCC[C@@H]1C(=O)O` [Compound 69], the IC50 is less than 50 nM.
`CCC[C@@H](C)OC(=O)Nc1c(C)noc1-c1ccc(OC[C@H]2CCCC[C@@H]2C(=O)O)c(C)n1` [Compound 70]: the IC50 is less than 50 nM.
In the case of `Cc1nc(-c2nnn(C)c2Nc2cncc(OC(C)C)n2)ccc1OC[C@H]1CCCC[C@@H]1C(=O)O` [Compound 71, (1S,2S)-2-(((6-(5-((6-isopropoxypyrazin-2-yl)amino)-1-methyl-1H-1,2,3-triazol-4-yl)-2-methylpyridin-3-yl)oxy)methyl)cyclohexane-1-carboxylic acid], the half-inhibitory concentration (IC50) is less than 50 nM.
As to `CCOc1cncc(Nc2c(-c3ccc(OC[C@H]4CCCC[C@@H]4C(=O)O)c(C)n3)nnn2C)n1` [Compound 72, (1S,2S)-2-(((6-(5-((6-ethoxypyrazin-2-yl)amino)-1-methyl-1H-1,2,3-triazol-4-y1)-2-methylpyridin-3-yl)oxy)methyl)cyclohexane-1-carboxylic acid], the IC50 was 50 to 250 nM.
On to `Cc1nc(-c2nnn(C)c2CNc2cncc(OC(C)C)n2)ccc1OC[C@H]1CCCC[C@@H]1C(=O)O` [Compound 73], for which the IC50 lay in the range of 50 to 250 nM.
As for `Cc1nc(-c2onc(C)c2COC(=O)N(C)C2CCCC2)ccc1OC[C@H]1CCCC[C@@H]1C(=O)O` [Compound 74, (1S,2S)-2-(((6-(4-(((cyclopentyl(methyl)carbamoyl)oxy)methyl)-3-methylisoxazol-5-yl)-2-methylpyridin-3-yl)oxy)methyl)cyclohexane-1-carboxylic acid], the figure is less than 50 nM; as for `CCCN(C)C(=O)OCc1c(C)noc1-c1ccc(OC[C@H]2CCCC[C@@H]2C(=O)O)c(C)n1` [Compound 75, (1S,2S)-2-(((2-methyl-6-(3-methyl-4-(((methyl(propyl)carbamoyl)oxy)methyl)isoxazol-5-y1)pyridin-3-yl)oxy)methyl)cyclohexane-1-carboxylic acid], less than 50 nM.
As for `CCCN(C)C(=O)OCc1c(-c2ccc(OC[C@H]3CCCC[C@@H]3C(=O)O)c(C)n2)nnn1C` [Compound 76, (1S,2S)-2-(((2-methyl-6-(1-methyl-5-(((methyl(propyl)carbamoyl)oxy)methyl)-1H-1,2,3-triazol-4-yl)pyridin-3-yl)oxy)methyl)cyclohexane-1-carboxylic acid], the half-inhibitory concentration (IC50) was in the range of 50 to 250 nM.
As to `Cc1noc(-c2ccc(OCC3CCCCC3C(=O)O)cc2)c1NC(=O)O[C@H](C)c1ccccc1Cl` (stereo partly drawn) [Compound 77, 2-((4-(4-((((R)-1-(2-chlorophenyl)ethoxy)carbonyl)amino)-3-methylisoxazol-5-yl)phenoxy)methyl)cyclohexane-1-carboxylic acid], the concentration for half-maximal inhibition (IC50) was less than 50 nM.
As to `Cc1noc(-c2ccc(OC[C@H]3CCCC[C@@H]3C(=O)O)cn2)c1NC(=O)O[C@H](C)c1ccccc1Cl` [Compound 78, (1S,2S)-2-(((6-(4-((((R)-1-(2-chlorophenyl)ethoxy)carbonyl)amino)-3-methylisoxazol-5-yl)pyridin-3-yl)oxy)methyl)cyclohexane-1-carboxylic acid], the IC50 was less than 50 nM.
In the case of `Cc1noc(-c2ccc(OCC3CCCCC3C(=O)O)cn2)c1NC(=O)O[C@H](C)c1ccccc1Cl` (stereo partly drawn) [Compound 79, 2-(((6-(4-((((R)-1-(2-chlorophenyl)ethoxy)carbonyl)amino)-3-methylisoxazol-5-yl)pyridin-3-yl)oxy)methyl)cyclohexane-1-carboxylic acid], the IC50 is less than 50 nM.
Turning to `Cc1nc(-c2onc(C)c2NC(=O)O[C@H](C)c2ccccc2Cl)ccc1OC[C@H]1CCCC[C@@H]1C(=O)O` [Compound 80, (1S,2S)-2-(((6-(4-((((R)-1-(2-chlorophenyl)ethoxy)carbonyl)amino)-3-methylisoxazol-5-yl)-2-methylpyridin-3-yl)oxy)methyl)cyclohexane-1-carboxylic acid], the IC50 was less than 50 nM.
